According to ChEMBL document CHEMBL5291721, “A preclinical secondary pharmacology resource illuminates target-adverse drug reaction associations of marketed drugs” (Nat Commun, 2023):

How the values were obtained:
[1] = target: T1, 5-hydroxytryptamine receptor 1A (Homo sapiens, UniProt P08908)
T1 sequence (P08908 whole entry): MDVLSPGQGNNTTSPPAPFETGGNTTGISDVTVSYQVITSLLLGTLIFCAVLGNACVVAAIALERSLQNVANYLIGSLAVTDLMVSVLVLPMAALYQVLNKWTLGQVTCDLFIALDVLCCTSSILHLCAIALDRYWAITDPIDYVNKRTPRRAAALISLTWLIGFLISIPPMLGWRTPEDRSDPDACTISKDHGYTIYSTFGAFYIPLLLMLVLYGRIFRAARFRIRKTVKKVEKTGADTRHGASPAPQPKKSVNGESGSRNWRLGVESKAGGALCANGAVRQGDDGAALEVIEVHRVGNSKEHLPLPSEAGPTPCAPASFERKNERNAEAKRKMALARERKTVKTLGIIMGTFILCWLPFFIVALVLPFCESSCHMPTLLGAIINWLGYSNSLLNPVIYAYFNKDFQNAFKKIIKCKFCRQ

[2] = target: Neurotensin receptor type 1 (Homo sapiens, UniProt P30989)
Histamine H2 receptor = Histamine H2 receptor (Homo sapiens, UniProt P25021)
[3] = target: Beta-3 adrenergic receptor (Homo sapiens, UniProt P13945)
[4] = target: Voltage-dependent N-type calcium channel subunit alpha-1B (Rattus norvegicus, UniProt Q02294); format: functional
[5] = target: T2, Alpha-2A adrenergic receptor (Homo sapiens, UniProt P08913)
T2 sequence (P08913 whole entry): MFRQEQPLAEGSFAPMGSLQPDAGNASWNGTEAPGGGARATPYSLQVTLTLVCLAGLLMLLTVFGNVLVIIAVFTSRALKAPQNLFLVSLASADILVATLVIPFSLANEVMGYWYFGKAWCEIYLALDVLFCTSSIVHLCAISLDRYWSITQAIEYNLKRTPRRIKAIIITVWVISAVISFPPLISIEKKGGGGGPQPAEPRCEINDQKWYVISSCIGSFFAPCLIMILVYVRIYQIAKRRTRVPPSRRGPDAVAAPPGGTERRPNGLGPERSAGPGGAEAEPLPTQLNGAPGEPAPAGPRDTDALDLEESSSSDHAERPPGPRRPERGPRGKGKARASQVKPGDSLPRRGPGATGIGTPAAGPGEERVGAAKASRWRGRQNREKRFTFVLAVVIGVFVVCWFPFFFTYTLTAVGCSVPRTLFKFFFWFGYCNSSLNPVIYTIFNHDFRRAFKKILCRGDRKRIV

[6] = target: T3, Corticotropin-releasing factor receptor 1 (Homo sapiens, UniProt P34998)
T3 sequence (P34998 whole entry): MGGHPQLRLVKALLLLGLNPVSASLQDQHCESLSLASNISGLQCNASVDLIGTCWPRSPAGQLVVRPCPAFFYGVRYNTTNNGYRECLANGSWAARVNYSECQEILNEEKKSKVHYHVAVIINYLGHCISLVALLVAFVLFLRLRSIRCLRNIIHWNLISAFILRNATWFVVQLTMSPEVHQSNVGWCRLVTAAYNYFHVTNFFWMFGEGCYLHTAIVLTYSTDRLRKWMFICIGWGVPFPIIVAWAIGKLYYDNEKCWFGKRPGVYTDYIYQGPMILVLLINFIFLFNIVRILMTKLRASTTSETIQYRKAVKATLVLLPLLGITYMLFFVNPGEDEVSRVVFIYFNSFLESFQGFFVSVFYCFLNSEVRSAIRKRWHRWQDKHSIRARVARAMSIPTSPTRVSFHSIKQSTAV

Androgen receptor = target: T4, Androgen receptor (Rattus norvegicus, UniProt P15207)
T4 sequence (P15207 whole entry): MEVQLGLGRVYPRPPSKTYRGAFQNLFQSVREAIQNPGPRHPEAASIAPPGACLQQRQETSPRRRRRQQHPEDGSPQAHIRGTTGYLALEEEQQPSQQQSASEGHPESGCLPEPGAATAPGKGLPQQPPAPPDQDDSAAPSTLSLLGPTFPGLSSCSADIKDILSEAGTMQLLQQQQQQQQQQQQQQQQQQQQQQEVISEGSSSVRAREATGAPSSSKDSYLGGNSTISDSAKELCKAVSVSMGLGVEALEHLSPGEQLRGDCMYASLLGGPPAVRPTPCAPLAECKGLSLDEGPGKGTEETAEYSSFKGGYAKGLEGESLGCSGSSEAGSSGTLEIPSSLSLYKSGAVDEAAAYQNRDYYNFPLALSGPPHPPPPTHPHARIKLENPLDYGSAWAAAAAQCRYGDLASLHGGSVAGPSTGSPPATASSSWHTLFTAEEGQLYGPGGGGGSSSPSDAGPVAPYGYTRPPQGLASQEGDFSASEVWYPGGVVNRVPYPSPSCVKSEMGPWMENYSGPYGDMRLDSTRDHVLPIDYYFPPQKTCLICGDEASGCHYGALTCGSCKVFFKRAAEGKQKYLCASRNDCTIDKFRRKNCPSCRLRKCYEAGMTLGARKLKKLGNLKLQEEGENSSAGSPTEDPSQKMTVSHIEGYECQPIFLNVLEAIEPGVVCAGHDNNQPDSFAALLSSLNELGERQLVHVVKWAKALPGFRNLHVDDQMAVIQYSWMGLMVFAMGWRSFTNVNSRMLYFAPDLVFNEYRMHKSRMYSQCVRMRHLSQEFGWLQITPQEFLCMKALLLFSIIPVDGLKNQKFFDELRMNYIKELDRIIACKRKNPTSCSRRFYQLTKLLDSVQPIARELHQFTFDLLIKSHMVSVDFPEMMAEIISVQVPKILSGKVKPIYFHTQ

[7] = target: T5, Muscarinic acetylcholine receptor M2 (Homo sapiens, UniProt P08172)
T5 sequence (P08172 whole entry): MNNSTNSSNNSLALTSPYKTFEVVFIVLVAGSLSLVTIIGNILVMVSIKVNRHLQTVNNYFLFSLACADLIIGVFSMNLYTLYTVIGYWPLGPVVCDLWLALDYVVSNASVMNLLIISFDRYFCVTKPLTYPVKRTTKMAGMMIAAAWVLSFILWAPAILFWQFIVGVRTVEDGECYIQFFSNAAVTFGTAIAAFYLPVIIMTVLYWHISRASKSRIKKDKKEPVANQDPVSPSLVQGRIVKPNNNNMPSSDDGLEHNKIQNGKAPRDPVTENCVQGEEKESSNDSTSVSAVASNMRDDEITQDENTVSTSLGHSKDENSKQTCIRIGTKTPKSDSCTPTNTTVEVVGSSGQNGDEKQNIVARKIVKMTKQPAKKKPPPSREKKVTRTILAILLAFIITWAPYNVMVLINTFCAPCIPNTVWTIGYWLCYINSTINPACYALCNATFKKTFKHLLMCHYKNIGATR

[8] = target: 5-hydroxytryptamine receptor 2B (Homo sapiens, UniProt P41595)
Also: assay procedure not described here.

Chain of 5-hydroxytryptamine receptor 2B (P41595 whole entry): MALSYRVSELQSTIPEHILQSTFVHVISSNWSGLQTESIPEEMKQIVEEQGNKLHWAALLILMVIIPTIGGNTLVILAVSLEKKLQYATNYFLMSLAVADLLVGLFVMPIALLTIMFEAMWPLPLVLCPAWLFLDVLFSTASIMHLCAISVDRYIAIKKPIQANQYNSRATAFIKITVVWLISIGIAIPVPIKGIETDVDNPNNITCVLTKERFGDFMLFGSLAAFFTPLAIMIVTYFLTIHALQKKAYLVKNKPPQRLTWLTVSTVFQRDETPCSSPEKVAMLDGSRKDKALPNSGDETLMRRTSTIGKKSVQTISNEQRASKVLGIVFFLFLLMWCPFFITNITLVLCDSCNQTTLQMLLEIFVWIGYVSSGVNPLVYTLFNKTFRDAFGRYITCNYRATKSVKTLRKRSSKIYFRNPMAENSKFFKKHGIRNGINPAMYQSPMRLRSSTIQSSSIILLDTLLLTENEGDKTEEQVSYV
Chain of Histamine H2 receptor (P25021 whole entry): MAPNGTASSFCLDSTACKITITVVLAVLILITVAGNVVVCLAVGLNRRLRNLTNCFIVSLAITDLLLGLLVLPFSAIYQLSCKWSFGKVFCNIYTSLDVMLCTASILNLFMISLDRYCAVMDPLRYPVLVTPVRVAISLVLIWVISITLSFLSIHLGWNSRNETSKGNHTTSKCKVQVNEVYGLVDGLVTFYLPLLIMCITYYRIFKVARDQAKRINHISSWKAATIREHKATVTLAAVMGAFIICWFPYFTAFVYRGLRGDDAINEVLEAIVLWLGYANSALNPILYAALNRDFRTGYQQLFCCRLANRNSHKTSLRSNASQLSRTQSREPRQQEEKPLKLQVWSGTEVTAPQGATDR
Chain of Voltage-dependent N-type calcium channel subunit alpha-1B (Q02294 whole entry): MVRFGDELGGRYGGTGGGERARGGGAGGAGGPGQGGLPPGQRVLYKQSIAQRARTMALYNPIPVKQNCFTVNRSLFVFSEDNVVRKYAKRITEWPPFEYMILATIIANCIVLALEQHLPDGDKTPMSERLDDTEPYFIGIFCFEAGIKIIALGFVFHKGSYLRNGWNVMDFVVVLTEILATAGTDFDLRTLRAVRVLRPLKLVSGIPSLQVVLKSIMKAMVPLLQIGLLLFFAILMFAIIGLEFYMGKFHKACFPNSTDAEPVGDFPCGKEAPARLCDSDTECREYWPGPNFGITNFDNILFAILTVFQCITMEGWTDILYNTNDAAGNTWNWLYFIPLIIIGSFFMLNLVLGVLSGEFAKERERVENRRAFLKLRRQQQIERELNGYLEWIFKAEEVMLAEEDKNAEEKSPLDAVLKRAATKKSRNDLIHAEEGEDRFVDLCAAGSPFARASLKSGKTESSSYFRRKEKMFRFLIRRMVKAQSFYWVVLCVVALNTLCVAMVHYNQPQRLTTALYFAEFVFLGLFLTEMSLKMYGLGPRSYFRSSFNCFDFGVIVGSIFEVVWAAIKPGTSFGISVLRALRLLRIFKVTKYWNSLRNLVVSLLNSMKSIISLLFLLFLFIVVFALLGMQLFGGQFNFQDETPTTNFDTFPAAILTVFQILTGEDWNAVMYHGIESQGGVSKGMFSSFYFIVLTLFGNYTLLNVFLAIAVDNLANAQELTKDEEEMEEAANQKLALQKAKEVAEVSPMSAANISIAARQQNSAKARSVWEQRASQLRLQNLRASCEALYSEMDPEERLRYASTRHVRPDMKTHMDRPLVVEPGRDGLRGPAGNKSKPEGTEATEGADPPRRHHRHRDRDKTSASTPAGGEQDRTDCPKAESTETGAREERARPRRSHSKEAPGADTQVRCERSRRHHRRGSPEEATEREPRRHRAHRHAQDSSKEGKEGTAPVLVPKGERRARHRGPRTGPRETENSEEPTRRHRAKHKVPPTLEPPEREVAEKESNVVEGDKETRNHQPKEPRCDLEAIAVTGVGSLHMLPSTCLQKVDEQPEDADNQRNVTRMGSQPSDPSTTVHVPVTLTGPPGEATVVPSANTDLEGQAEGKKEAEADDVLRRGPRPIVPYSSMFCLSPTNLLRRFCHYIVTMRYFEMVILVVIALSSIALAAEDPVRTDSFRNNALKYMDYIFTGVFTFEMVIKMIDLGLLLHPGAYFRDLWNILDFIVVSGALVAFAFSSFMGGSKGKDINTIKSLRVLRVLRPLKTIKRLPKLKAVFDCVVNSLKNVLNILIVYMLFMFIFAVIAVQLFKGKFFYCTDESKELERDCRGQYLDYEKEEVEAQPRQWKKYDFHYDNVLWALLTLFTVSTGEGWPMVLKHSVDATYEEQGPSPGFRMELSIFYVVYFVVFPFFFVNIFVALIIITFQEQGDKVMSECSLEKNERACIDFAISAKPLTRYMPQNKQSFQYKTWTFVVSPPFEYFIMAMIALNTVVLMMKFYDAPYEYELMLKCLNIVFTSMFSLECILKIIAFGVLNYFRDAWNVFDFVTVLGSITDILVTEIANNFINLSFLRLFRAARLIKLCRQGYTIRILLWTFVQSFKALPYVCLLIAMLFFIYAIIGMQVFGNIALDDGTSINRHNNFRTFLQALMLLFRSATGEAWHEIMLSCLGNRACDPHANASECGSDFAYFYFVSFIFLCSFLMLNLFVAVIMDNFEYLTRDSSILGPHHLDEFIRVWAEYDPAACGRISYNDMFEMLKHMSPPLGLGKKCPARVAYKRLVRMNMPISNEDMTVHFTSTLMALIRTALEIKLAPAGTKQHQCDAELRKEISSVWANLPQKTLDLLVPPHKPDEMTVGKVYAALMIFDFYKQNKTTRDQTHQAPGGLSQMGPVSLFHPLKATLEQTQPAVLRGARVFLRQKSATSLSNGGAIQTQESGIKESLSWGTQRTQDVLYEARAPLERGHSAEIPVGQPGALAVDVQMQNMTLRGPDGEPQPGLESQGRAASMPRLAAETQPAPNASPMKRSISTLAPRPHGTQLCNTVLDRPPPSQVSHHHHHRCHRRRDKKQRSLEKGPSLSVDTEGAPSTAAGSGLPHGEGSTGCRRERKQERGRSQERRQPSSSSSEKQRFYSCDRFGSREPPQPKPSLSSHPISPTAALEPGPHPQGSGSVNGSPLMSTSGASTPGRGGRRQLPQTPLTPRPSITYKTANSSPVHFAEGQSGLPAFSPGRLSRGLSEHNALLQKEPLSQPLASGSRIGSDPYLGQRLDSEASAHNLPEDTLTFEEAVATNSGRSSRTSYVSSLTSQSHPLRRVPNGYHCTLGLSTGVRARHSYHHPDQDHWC
Chain of Neurotensin receptor type 1 (P30989 whole entry): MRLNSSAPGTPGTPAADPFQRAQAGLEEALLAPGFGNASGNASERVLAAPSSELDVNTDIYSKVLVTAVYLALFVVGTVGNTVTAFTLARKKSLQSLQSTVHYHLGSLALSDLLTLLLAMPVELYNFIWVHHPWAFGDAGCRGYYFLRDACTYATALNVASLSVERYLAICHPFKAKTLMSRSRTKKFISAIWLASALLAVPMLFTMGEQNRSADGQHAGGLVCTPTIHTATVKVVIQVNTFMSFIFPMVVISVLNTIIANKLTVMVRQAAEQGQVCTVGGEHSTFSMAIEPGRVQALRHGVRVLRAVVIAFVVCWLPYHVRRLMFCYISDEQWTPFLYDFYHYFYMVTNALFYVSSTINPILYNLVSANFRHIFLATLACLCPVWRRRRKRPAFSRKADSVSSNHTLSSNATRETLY
Chain of Beta-3 adrenergic receptor (P13945 whole entry): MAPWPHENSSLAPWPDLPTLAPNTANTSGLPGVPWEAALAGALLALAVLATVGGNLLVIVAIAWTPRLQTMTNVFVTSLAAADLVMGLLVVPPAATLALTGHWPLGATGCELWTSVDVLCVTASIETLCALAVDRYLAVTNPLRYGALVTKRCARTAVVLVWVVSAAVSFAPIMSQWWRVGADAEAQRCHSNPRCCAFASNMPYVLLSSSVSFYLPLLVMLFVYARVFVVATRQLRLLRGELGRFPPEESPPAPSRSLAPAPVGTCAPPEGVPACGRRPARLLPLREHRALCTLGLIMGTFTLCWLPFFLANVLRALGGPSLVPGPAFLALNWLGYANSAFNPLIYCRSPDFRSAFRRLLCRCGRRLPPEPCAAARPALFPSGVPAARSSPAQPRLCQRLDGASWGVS

SMILES | AC50 [1] [µM] | AC50 [2] [µM] | AC50 (Histamine H2 receptor) [µM] | AC50 [3] [µM] | AC50 [4] [µM] | AC50 [5] [µM] | AC50 [6] [µM] | AC50 (Androgen receptor) [µM] | AC50 [7] [µM] | AC50 [8] [µM]
NC(CO)C(=O)NNCc1ccc(O)c(O)c1O (stereo not given) [BENSERAZIDE] | > 10 | > 30 | > 10 | > 30 | > 10 | > 10 | > 30 | > 30 | > 10 | > 10
CN(C)C(=O)OC1N=C(c2ccccc2)c2cc(Cl)ccc2N(C)C1=O (stereo not given) [CAMAZEPAM] | > 10 | > 30 | > 10 | > 30 | > 10 | > 10 | > 30 | > 30 | > 10 | > 10
Cc1c(C(=O)Nc2ccc(N3C[C@@H](C)O[C@@H](C)C3)nc2)cccc1-c1ccc(OC(F)(F)F)cc1 [SONIDEGIB] | > 10 | > 30 | > 10 | > 30 | > 10 | > 10 | > 30 | > 30 | > 10 | > 10
